One assay has as its system Staphylococcus aureus. Put plainly: Antibacterial activity against Staphylococcus aureus ATCC 29213 by broth macrodilution method. It is filed as functional.
Another assay has as its system Candida albicans. Put plainly: Antifungal activity against Candida albicans ATCC 90029 by broth macrodilution method. It is filed as functional.

Values after ≈ are worked out from the molar mass of the structure shown.

On to `CCCCC(C)c1cc(O)c(CC)c(O)c1C=O` (configuration not stated) [ANGUILLOSPORAL], for which the MIC (commonly the lowest concentration that inhibits growth of the organism) in the assay with Staphylococcus aureus was found to be 4 µg/mL (≈ 16 µM); against Candida albicans, 58 µg/mL (≈ 232 µM).

The values above are taken from ChEMBL document CHEMBL1159297, “Anguillosporal, a new antibacterial and antifungal metabolite from the freshwater fungus Anguillospora longissima” (1995).
